Source: patent US20030203975A1, “Anti-cancer agents” (priority 1998, published 2003)
pIC50: −log10 of the molar value.

Assays:
[1] = test system: MAC 15A adenocarcinoma of the colon; experiment: In vitro chemosensitivity against MAC 15A adenocarcinoma (MTT assay); type: cell-based; details: Mus musculus, MAC15A, 96 hours continuous exposure
Procedure: In Vitro Activity Against MAC 15A Adenocarcinoma.
MAC 15A cells were grown in RPMI 1640 medium supplemented with 10% foetal calf serum containing a 1% antibiotic mixture under standard tissue culture conditions and were maintained at 37° C. in a humidified atmosphere of 5% CO2 in air. Cells were harvested from a stock culture in exponential growth phase and plated in 96-well flat-bottomed plates to achieve a final density of 2×10^3 cells per well. After 2 hours incubation medium was replaced with either fresh medium containing 0.5% DMSO (control) or medium containing test compound dissolved in DMSO at a concentrations from 10 mM to 1 nM. Chemosensitivity was assessed using MTT assay by the method of Plumb et al Cancer Research 49 (1989) 4435-4440.
Following 96 hours continuous exposure to drug at 37° C. cells were incubated with fresh drug-free medium immediately prior to addition of MTT solution (5 mg/ml). Medium and MTT were removed after 4 hours and 150 μl of DMSO was added. For each plate the absorbance of the resulting solution was measured at the analytical wavelength 550 nm for formazan product, using a Labsystem Mutiskan. IC50 values were obtained from growth curves of drug concentration against % survival and are expressed in μm.

[2] = test system: DNA: Calf thymus sodium salt; experiment: DNA binding assay, ethidium bromide displacement; set-up: key: NB = Not binding; details: concentration required to displace 50% of the ethidium bromide; 20 μM DNA, 2 μM dye
Procedure: (§1) The propensity of selected compounds to bind to DNA in the absence of topos was measured in order to identify compounds that would bind weakly, or not at all. […] A […] was used determine binding constants of the compound to DNA by displacement of either ethidium bromide (an intercalator) or Hoechst dye 33258 (a groove binder) which form a DNA-bound fluorescent complex measured by fluorescence spectroscopy.
(§2) DNA Binding Assay Protocol
(§3) In order to detect the strength and mode of anthraquinone compound binding to DNA the displacement of known DNA binders was detected by measuring the fluorescence of a DNA/fluorescent compound complex. The addition of known concentrations of ethidium bromide, an interchelator, and Hoescht Dye, a groove binder, cause a fluorescent DNA/binder complex that can be detected and the fluorescence quantified. The addition of anthraquinone compounds displaces the interchelators or groove binders, depending on the compound mode of DNA binding, and therefore reduces the fluorescence accordingly. The preferred binding action of compounds can be quantified by determining the reduction in fluorescence resulting from a given concentration of compound. The quantification of a compounds ability to bind to DNA is expressed, as the concentration required to displace 50% of the ethidium bromide or Hoescht Dye, thus reducing the fluorescence by 50%. Therefore, the values produced are QE50 for ethidium, bromide, or QH50 for Hoescht Dye.
(§4) Compound: 300, 60, 10 and 10/6gM (1.66 μM) solution concentrations were prepared for use in the assay to produce a range of compound. Concentrations. 100, 200 and 300 μl of each dilution were used in the assay reaction. This provides a range of concentrations: −30, 20, 10, 6, 4, 2, 1, 0.67, 0.33, 0.17, 0.11, 0.06, 0.00 μM in the assay environment. Intermediate concentrations can be utilised to enhance the accuracy of the displacement concentration determination.
(§5) Buffer: 100 mM Tris, NaCI 500 mM. DNA: Calf thymus sodium salt. Stock solution of 200 μM was prepared in 10× assay buffer. Dilution of DNA therefore provided the correct concentration of assay buffer in the assay cell.300 μg DNA was used in 3 ml reaction mixture therefore 20 μM DNA concentration. Hoescht Dye 2 μM final concentration, therefore 100 μl of a 60 μM stock solution was added to a 3 ml assay. Ethidium Bromide 2 μM final concentration therefore 100 μl of a 60 μM stock solution was added to a 3 ml assay. Distilled H2O Water was added to produce 3 ml reaction volume. Order of addition: 1. DNA, 2. Water, 3. Drug, 4. Dye
(§6) The assay was completed with both Hoescht Dye and Ethidium. Bromide for each compound. The ethidium bromide is a DNA inter-chelator, Hoescht Dye is a minor groove binder. 100, 200 and […] of the lowest compound dilution was assayed. This procedure was repeated with all further dilution's. This provided a curve of fluorescence intensity decrease with increasing compound concentration. QE50 and QH50 values were determined by extrapolating the concentration of compound at the point where the fluorescence intensity was reduced by 50%. Controls involving compound only and ethidium. bromide or Hoechst Dye without compound were carried out for each experiment. Two readings for each concentration of compound were performed per experiment, each experiment was repeated at least three times. Fluorometer: Perkin Elmer Luminescence Spectrometer LS 50B.

[3] = test system: DNA: Calf thymus sodium salt; experiment: DNA binding assay, Hoechst dye displacement; set-up: key: NB = Not binding; details: concentration required to displace 50% of the Hoescht Dye; 20 μM DNA, 2 μM dye
Procedure: as §1, §2, §3, §4, §5, §6

Topoisomerase IIα = Topoisomerase IIα (Homo sapiens, UniProt P11388); experiment: Topo II relaxation assay; type: biochemical; set-up: key: ‘—’ = Not active; details: unit not given; compound at 1, 10, 25 and 50 μM in protocol
Procedure: (§7) Topo II Relaxation Assay Protocol
(§8) 10×Topo II Relaxation Buffer
(§9) 500 mM Tris-HCl (pH 7.5); 100 mM mgCI2; 50 mM EDTA; 300 mg/mI BSA; 10 mM DTT; −20° C.

Topoisomerase IIβ = Topoisomerase IIβ (Homo sapiens, UniProt Q02880); experiment: Topo II relaxation assay; type: biochemical; set-up: key: ‘—’ = Not active; details: unit not given; compound at 1, 10, 25 and 50 μM in protocol
Procedure: as §7, §8, §9

Sequence of Topoisomerase IIα (P11388 whole entry): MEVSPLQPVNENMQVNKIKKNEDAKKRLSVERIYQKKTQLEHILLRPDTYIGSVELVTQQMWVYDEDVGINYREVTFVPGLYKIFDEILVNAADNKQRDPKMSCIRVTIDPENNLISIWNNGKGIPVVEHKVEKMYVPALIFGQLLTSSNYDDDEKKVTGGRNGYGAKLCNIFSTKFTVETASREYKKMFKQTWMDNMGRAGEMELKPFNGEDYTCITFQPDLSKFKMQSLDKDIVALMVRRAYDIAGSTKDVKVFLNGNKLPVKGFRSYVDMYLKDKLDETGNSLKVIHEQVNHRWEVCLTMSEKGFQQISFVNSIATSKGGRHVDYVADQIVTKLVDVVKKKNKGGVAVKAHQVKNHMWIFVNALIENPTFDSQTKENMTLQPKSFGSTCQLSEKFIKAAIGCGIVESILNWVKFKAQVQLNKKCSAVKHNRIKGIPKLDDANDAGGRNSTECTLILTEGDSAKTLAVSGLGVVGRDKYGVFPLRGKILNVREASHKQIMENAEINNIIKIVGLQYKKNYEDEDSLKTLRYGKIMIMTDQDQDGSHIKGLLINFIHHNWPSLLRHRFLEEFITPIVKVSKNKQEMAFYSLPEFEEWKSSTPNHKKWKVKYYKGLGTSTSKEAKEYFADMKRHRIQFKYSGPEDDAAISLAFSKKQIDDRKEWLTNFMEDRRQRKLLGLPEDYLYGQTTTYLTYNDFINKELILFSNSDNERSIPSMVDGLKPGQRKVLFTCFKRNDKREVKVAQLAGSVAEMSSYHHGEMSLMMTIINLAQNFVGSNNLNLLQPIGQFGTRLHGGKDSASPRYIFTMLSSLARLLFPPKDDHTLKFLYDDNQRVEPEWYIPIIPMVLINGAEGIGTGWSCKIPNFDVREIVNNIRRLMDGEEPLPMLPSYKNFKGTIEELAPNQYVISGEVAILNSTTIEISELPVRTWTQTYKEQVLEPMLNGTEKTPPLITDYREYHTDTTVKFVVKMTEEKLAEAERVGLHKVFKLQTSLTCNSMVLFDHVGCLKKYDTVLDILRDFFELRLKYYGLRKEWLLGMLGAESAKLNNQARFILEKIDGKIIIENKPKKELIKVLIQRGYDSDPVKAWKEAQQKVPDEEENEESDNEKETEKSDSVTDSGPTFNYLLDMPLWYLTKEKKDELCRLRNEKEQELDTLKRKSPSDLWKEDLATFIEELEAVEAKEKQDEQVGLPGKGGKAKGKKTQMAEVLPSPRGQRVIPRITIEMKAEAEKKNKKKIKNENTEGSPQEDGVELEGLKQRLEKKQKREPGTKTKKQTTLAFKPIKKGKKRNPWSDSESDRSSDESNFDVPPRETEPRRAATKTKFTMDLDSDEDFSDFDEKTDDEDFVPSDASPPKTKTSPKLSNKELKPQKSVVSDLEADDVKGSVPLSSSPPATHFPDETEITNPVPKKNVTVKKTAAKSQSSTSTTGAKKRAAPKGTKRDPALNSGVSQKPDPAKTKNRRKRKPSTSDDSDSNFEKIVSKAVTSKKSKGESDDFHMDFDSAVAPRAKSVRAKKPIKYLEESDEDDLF
Sequence of Topoisomerase IIβ (Q02880 whole entry): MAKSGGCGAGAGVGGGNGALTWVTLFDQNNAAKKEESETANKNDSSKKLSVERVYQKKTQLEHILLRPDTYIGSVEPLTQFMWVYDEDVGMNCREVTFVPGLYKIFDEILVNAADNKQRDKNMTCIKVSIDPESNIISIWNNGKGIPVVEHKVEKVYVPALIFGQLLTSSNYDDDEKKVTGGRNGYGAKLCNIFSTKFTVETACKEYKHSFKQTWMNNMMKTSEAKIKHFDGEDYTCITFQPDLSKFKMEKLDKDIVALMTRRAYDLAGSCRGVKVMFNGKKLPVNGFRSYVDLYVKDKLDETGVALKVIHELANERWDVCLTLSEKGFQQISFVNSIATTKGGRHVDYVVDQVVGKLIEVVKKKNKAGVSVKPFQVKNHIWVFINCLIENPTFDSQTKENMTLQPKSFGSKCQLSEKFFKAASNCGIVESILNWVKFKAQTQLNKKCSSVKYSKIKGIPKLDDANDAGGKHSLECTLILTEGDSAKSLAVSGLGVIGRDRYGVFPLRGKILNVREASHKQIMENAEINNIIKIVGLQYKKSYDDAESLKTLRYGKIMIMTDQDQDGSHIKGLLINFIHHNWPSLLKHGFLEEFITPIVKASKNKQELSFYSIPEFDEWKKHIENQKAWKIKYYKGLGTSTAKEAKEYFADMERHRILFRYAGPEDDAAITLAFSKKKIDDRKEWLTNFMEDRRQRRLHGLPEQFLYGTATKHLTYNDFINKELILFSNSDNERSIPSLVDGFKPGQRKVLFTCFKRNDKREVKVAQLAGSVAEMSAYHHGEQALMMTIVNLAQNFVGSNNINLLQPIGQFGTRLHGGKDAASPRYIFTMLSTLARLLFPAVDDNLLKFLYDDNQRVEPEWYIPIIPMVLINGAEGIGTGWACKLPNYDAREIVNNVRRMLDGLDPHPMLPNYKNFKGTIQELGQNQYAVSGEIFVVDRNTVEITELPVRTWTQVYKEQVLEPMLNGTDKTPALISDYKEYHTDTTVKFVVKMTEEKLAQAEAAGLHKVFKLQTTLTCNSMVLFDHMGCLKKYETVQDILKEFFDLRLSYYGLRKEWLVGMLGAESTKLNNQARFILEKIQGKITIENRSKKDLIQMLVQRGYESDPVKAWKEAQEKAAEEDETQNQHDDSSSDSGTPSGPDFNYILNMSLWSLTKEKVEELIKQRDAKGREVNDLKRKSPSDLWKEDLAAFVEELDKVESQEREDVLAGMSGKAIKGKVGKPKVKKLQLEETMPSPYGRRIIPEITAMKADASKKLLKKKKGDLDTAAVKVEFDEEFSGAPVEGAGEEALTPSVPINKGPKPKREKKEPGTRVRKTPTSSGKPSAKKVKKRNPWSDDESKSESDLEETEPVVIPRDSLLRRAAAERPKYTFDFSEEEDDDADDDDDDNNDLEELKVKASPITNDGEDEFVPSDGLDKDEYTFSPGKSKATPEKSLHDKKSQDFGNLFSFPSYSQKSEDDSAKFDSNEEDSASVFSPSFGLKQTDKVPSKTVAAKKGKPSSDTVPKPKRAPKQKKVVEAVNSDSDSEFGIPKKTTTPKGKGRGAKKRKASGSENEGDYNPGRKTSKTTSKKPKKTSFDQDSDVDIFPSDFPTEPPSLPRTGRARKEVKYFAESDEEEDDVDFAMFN

Structure (SMILES) | pIC50 [1] | QE50 Intercalating [2] | QH50 Minor groove binding [3] | melting point | other results
C[C@H](N)C(=O)OCCCNc1cccc2c1C(=O)c1ccccc1C2=O.O=C(O)C(F)(F)F [Example 29, 1-[3-(L-alanyloxy)propylamino]anthracene-9,10-dione trifluoroacetate] | 5.01 | NB | NB | 126 °C | 
N[C@@H](Cc1ccccc1)C(=O)OCCNc1cccc2c1C(=O)c1ccccc1C2=O.O=C(O)C(F)(F)F [Example 33, 1-[2-(L-phenylalanyloxy)ethylamino]anthracene-9,10-dione trifluoro-acetate] |  | NB | NB |  | 
N[C@@H](Cc1c[nH]c2ccccc12)C(=O)OCCCNc1cccc2c1C(=O)c1ccccc1C2=O.O=C(O)C(F)(F)F [Example 41, 1-[3-(L-tryptophyloxy)propylamino]anthracene-9,10-dione trifluoro-acetate] |  |  |  |  | TopIIα Relax. (Topoisomerase IIα): —
O=C(O)C(F)(F)F.O=C1c2ccccc2C(=O)c2c(NCCCCOC(=O)[C@@H]3CCCN3)cccc21 [Example 47, 1-[4-(L-prolyloxy)butylamino]anthracene-9,10-dione trifluoroacetate] |  |  |  |  | TopIIα Relax. (Topoisomerase IIα): 5; TopIIβ Relax. (Topoisomerase IIβ): 10
CC(C)[C@H](N)C(=O)OCCCCNc1ccc(O)c2c1C(=O)c1ccccc1C2=O.O=C(O)C(F)(F)F [Example 53, 4-hydroxy-1-[4-(L-valyloxy)butylamino]anthracene-9,10-dione tri-fluoroacetate] |  | 2.9 µM | 4.4 µM |  | pIC50 ([1]; 96 h): 5.28
NCC(=O)OCCNc1cccc2c1C(=O)c1ccccc1C2=O.O=C(O)C(F)(F)F [Example 59, 1-[2-(glycyloxy)ethylamino]anthracene-9,10-dione trifluoroacetate] | 5.46 |  |  | 180 °C | 
NCC(=O)OCCCNc1cccc2c1C(=O)c1ccccc1C2=O.O=C(O)C(F)(F)F [Example 61, 1-[3-(glycyloxy)propylamino]anthracene-9,10-dione trifluoroacetate] | 4.97 |  |  | 198 °C | 
C[C@@H](N)C(=O)OCCCNc1cccc2c1C(=O)c1ccccc1C2=O.O=C(O)C(F)(F)F [Example 63, 1-[3-(D-alanyloxy)propylamino]anthracene-9,10-dione trifluoroacetate] | 5.16 | NB | NB | 134 °C | 
N[C@H](Cc1ccccc1)C(=O)OCCCNc1cccc2c1C(=O)c1ccccc1C2=O.O=C(O)C(F)(F)F [Example 65, 1-[3-(D-phenylalanyloxy)propylamino]anthracene-9,10-dione trifluoro-acetate] | 5.32 |  |  | 102 °C | 
O=C(O)C(F)(F)F.O=C1c2ccccc2C(=O)c2c(NCCCOC(=O)[C@@H]3CCCN3)cccc21 [Example 67, 1-[3-(L-prolyloxy)propylamino]anthracene-9,10-dione trifluoroacetate] | 5.08 | NB | NB | 66 °C | 
O=C(O)C(F)(F)F.O=C1c2ccccc2C(=O)c2c(NCCCOC(=O)[C@H]3CCCN3)cccc21 [Example 69, 1-[3-(D-prolyloxy)propylamino]anthracene-9,10-dione trifluoroacetate] | 4.99 | NB | NB | 66 °C | 
CN(CC(=O)OCCCCNc1cccc2c1C(=O)c1ccccc1C2=O)C(=O)OC(C)(C)C [Example 82, 1-[4-(N-tertiarybutoxycarbonylsarcosyloxy)butylamino]anthracene-9,10-dione] |  |  |  | 90 °C | 
CNCC(=O)OCCCCNc1cccc2c1C(=O)c1ccccc1C2=O.O=C(O)C(F)(F)F [Example 83, 1-[4-(sarcosyloxy)butylamino]anthracene-9,10-dione trifluoroacetate] | 5.14 |  |  | 132 °C | 
CC[C@H](N)C(=O)OCCCCNc1cccc2c1C(=O)c1ccccc1C2=O.O=C(O)C(F)(F)F [Example 87, (S)-1-[4-(2-aminobutanoyloxy)butylamino]-anthracene-9,10-dione trifluoroacetate] | 5.52 |  |  | 118 °C | 
CN[C@@H](C)C(=O)OCCCCNc1cccc2c1C(=O)c1ccccc1C2=O.O=C(O)C(F)(F)F [Example 91, 1-[4-(N-methyl-L-alanyloxy)butylamino]anthracene-9,10-dione tri-fluoroacetate] |  |  |  | 84 °C | pIC50 ([1]; 96 h): 5.32
NCC(=O)OCCCNc1ccc(O)c2c1C(=O)c1ccccc1C2=O.O=C(O)C(F)(F)F [Example 123, 4-hydroxy-1-[3-(glycyloxy)propylamino]anthracene-9,10-dione tri-fluoroacetate] |  |  |  | 188 °C | pIC50 ([1]; 96 h): 6.52
NCC(=O)OCCCNc1ccc(O)c2c1C(=O)c1c(O)cccc1C2=O.O=C(O)C(F)(F)F [Example 127, 4,8-dihydroxy-1-[3-(glycyloxy)propylamino]anthracene-9,10-dione trifluoroacetate] | 5.89 |  |  | 196 °C | 
NCC(=O)N1CCC[C@H]1C(=O)OCCCNc1cccc2c1C(=O)c1ccccc1C2=O.O=C(O)C(F)(F)F [Example 131, 1-[3-(glycyl-L-prolyloxy)propylamino]anthracene-9,10-dione tri-fluoroacetate] |  |  |  | 146 °C | pIC50 ([1]; 96 h): 5.60
CC(C)C[C@H](N)C(=O)NCC(=O)OCCCNc1cccc2c1C(=O)c1ccccc1C2=O.O=C(O)C(F)(F)F [Example 133, 1-[3-(L-leucylglycyloxy)propylamino]anthracene-9,10-dione trifluoroacetate] | 5.92 |  |  | 100 °C | 
O=C(O)C(F)(F)F.O=C1c2ccccc2C(=O)c2c(NCCOC(=O)[C@@H]3CCCN3)cccc21 [Example 137, 1-[2-(prolyloxy)ethylamino]anthracene-9,10-dione trifluoroacetate] | 4.47 | NB | NB |  | 
O=C1c2c(O)ccc(O)c2C(=O)c2c(NCCNCCO)ccc(NCCNCCO)c21 [Mitoxantrone, reference compound] |  | 0.8 ± 0.3 µM | 1.2 ± 0.3 µM |  | 
